Literature values in US8940275B2, “Nanoparticles based on gadolinium coordination polymers as highly sensitive T1 MRI contrast agents” (Kent State University, priority 2010, dated 2015).

Conditions: clinical MRI contrast agents; 1.5 T

SMILES | R1 (typical relaxivity value)
CNC(=O)CN(CCN(CCN(CC(=O)[O-])CC(=O)NC)CC(=O)[O-])CC(=O)[O-].[Gd+3] [Omniscan ®] | 4.6 mM⁻¹ s⁻¹
CNC[C@H](O)[C@@H](O)[C@H](O)[C@H](O)CO.O=C([O-])CN1CCN(CC(=O)[O-])CCN(CC(=O)O)CCN(CC(=O)[O-])CC1.[Gd+3] [Dotarem ®] | 4.2 mM⁻¹ s⁻¹
COCCNC(=O)CN(CCN(CCN(CC(=O)[O-])CC(=O)NCCOC)CC(=O)[O-])CC(=O)[O-].[Gd+3] [OptiMARK] | 5.2 mM⁻¹ s⁻¹
CNC[C@H](O)[C@@H](O)[C@H](O)[C@H](O)CO.CNC[C@H](O)[C@@H](O)[C@H](O)[C@H](O)CO.O=C([O-])CN(CCN(CC(=O)[O-])CC(=O)O)CCN(CC(=O)[O-])CC(=O)O.[Gd+3] [Magnevist ®] | 4.3 mM⁻¹ s⁻¹
CC(O)CN1CCN(CC(=O)[O-])CCN(CC(=O)[O-])CCN(CC(=O)[O-])CC1.[Gd+3] (stereo not drawn) [ProHance ®] | 4.4 mM⁻¹ s⁻¹
CCOc1ccc(CC(CN(CCN(CC(=O)[O-])CC(=O)[O-])CC(=O)[O-])N(CC(=O)[O-])CC(=O)[O-])cc1.[Gd+3].[Na+].[Na+] (stereo not drawn) [Primovist] | 7.3 mM⁻¹ s⁻¹
O=C([O-])CN1CCN(CC(=O)[O-])CCN([C@H](CO)[C@H](O)CO)CCN(CC(=O)[O-])CC1.[Gd+3] (racemic) [Gadovist ®] | 5.3 mM⁻¹ s⁻¹
CNC[C@H](O)[C@@H](O)[C@H](O)[C@H](O)CO.CNC[C@H](O)[C@@H](O)[C@H](O)[C@H](O)CO.O=C([O-])CN(CCN(CC(=O)[O-])CC(=O)O)CCN(CC(=O)O)C(COCc1ccccc1)C(=O)[O-].[Gd+3] (stereo not drawn) [MultiHance] | 6.7 mM⁻¹ s⁻¹

Conditions: commercial agents, field not given

SMILES | r1
CNC[C@H](O)[C@@H](O)[C@H](O)[C@H](O)CO.CNC[C@H](O)[C@@H](O)[C@H](O)[C@H](O)CO.O=C([O-])CN(CCN(CC(=O)[O-])CC(=O)O)CCN(CC(=O)[O-])CC(=O)O.[Gd+3] [Magnevist ®] | 4.3 mM⁻¹ s⁻¹
